Patent publication US20210403485A1, “PYRAZOLOPYRIMIDINE DERIVATIVE AS SELECTIVE TRK INHIBITOR” (SHANDONG LUYE PHARMACEUTICAL CO., LTD., priority 2018, published 2021)

Legend:
ALK = target: T1, ALK (Homo sapiens, UniProt Q9UM73); assay: Kinase inhibitory activity (33P-ATP, filtration-binding method, Reaction Biology Corp.); assay type: biochemical; settings: read-out: Half maximal inhibitory concentration IC50 for kinases, ALK
T1 construct: purchased Reaction Biology Corp
Procedure: (§1) The mixture was incubated at room temperature for 20 minutes, added with ^33P-ATP at a certain concentration to start the reaction, and then incubated at room temperature for 120 minutes. Finally, the radioactivity of the reactant was detected by the filtration-binding method. The final kinase activity was expressed as the ratio of the remaining kinase activity in the test sample to the kinase activity of the DMSO control. The dose-response curves were fitted and IC50 values were calculated by GraphPad software.

TrkA-G595R = target: T2, TrkA-G595R (Homo sapiens, UniProt P04629, G595R); assay: as above; assay type: biochemical; settings: read-out: Half maximal inhibitory concentration IC50 for kinases, TrkA-G595R
T2 construct: purchased Reaction Biology Corp
T2 sequence (P04629 33-796 G595R): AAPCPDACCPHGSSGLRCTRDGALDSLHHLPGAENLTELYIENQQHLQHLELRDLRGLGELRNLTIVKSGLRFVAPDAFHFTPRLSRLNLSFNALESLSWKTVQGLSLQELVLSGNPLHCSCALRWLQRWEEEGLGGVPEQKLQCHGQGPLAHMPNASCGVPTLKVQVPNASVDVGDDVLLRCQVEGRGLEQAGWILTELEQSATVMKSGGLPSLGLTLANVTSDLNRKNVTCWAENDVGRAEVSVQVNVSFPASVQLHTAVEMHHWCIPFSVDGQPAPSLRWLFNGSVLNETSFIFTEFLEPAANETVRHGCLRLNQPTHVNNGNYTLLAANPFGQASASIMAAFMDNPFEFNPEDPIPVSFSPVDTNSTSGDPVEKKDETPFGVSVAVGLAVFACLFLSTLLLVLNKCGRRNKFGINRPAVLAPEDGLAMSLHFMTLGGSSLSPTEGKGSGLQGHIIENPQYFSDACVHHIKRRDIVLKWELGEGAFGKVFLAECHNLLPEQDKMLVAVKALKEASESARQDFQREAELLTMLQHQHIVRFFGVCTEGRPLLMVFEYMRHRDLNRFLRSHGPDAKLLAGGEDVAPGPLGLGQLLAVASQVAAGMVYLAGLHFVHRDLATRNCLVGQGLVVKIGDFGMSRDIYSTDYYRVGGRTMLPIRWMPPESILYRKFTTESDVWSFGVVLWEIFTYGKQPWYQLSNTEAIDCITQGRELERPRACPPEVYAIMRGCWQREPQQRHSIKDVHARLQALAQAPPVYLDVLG
Procedure: as §1

Ros1 = target: T3, Ros1 (Homo sapiens, UniProt P08922); assay: as above; assay type: biochemical; settings: read-out: Half maximal inhibitory concentration IC50 for kinases, Ros1
T3 construct: purchased Reaction Biology Corp
Procedure: as §1

TrkA-G667C = target: T4, TrkA-G667C (Homo sapiens, UniProt P04629, G667C); assay: as above; assay type: biochemical; settings: read-out: Half maximal inhibitory concentration IC50 for kinases, TrkA-G667C
T4 construct: purchased Reaction Biology Corp
Procedure: as §1

TrkA = target: T5, TrkA (Homo sapiens, UniProt P04629); assay: as above; assay type: biochemical; settings: read-out: Half maximal inhibitory concentration IC50 for kinases, TrkA
T5 construct: purchased Reaction Biology Corp
Procedure: as §1

TrkC = target: T6, TrkC (Homo sapiens, UniProt Q16288); assay: as above; assay type: biochemical; settings: read-out: Half maximal inhibitory concentration IC50 for kinases, TrkC
T6 construct: purchased Reaction Biology Corp
T6 sequence (Q16288 32-839): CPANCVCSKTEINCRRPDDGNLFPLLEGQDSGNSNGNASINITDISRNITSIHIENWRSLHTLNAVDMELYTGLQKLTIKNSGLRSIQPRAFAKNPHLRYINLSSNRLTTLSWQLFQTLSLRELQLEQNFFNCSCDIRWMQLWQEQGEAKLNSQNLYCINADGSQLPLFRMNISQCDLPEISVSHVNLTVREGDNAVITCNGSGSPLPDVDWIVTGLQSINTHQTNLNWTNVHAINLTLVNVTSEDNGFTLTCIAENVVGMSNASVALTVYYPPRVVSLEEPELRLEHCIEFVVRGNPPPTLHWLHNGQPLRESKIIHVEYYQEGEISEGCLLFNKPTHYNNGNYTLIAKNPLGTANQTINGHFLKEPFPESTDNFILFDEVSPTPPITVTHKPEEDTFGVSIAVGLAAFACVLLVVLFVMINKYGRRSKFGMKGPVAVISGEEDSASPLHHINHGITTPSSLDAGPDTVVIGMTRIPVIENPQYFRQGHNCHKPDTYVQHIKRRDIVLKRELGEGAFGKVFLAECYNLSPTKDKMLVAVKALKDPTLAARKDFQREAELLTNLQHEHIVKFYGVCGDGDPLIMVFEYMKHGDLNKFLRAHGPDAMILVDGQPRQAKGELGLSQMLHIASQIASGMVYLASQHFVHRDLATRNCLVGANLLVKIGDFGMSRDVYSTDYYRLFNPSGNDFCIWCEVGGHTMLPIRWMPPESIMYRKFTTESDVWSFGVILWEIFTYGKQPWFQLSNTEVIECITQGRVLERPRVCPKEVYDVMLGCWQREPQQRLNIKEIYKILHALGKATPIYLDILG
Procedure: as §1

BaF3 LMNA-NTRK1-G667A = target: T7, BaF3 LMNA-NTRK1-G667A (Homo sapiens, UniProt P04629, G667A, cells depend on it); assay: Inhibitory activity against cell proliferation (CellTiter-Glo, 72 hours); assay type: cell-based; settings: read-out: Half maximal inhibitory concentration IC50 of cells, BaF3 LMNA-NTRK1-G667A
T7 construct: fused on or other part: N-terminal part of LMNA as fusion partner (part of the key); P02545 (Prelamin-A/C)
T7 sequence (P04629 whole entry G667A, the tested form may be a part): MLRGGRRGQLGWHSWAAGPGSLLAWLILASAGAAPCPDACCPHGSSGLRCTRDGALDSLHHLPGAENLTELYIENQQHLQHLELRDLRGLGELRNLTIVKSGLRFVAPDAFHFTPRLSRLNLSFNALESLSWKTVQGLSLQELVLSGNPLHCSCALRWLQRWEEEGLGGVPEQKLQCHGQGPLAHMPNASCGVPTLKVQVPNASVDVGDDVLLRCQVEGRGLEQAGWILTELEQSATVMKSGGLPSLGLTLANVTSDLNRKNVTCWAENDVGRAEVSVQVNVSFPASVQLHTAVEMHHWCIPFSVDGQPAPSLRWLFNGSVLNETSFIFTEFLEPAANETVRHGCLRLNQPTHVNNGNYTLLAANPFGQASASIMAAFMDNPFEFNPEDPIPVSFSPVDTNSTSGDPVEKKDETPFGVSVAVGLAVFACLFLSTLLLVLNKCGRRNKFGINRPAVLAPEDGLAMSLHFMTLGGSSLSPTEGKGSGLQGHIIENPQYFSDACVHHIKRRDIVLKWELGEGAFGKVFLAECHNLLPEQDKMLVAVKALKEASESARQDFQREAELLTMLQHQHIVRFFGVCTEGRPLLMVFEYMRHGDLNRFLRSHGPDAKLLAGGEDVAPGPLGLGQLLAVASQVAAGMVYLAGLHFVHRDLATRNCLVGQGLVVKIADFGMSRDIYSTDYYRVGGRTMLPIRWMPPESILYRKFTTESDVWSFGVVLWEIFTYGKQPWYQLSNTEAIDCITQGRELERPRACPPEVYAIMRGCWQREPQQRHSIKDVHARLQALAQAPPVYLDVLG
Procedure: (§2) Adenosine Triphosphate (ATP) is an energy carrier commonly used in various life activities in nature, and is the minimum unit for energy storage and transfer. The CellTiter-Glo™ cell viability assay kit uses luciferase as an assay agent, which requires the involvement of ATP in luminescence. The CellTiter-Glo™ reagent is added into cell culture medium to measure the luminescence value. The luminescence signal is directly proportional to the amount of ATP in the system, and the ATP is positively correlated with the number of viable cells. Therefore, the proliferation of cells can be detected by detecting the ATP content using the CellTiter-Glo kit.
(§3) a) Cells in the logarithmic growth phase were collected and counted using a […]. The cell viability was detected by the trypan blue exclusion method, and the cell viability was kept over 90%.
(§4) b) The cell concentration was adjusted; 90 μL of the cell suspension was added to a 96-well plate.
(§5) a) A 10-fold compound solution was prepared, with the highest concentration being 10 μM (a total of 9 concentrations, 3-fold dilution). 10 μL of compound solution was added to each well of a 96-well plate inoculated with cells, and three duplicate wells were set for each compound concentration.
(§6) a) The CTG reagent was thawed and the cell plate was equilibrated to room temperature for 30 minutes.
(§7) b) An equal volume of CTG solution was added to each well.
(§8) c) The plate was shaken on an orbital shaker for 5 minutes to lyse the cells.
(§9) d) The cell plate was placed at room temperature for 20 minutes to stabilize the luminescence signal.
(§10) e) The luminescence value was read.
(§11) The data were analyzed using GraphPad Prism 5.0 software, fitted with nonlinear S-curve regression to give dose-response curves, and IC50 values were calculated therefrom.

Ba/F3 LMNA-NTRK1-F589L = target: T8, Ba/F3 LMNA-NTRK1-F589L (Homo sapiens, UniProt P04629, F589L, cells depend on it); assay: as above; assay type: cell-based; settings: read-out: Half maximal inhibitory concentration IC50 of cells, Ba/F3 LMNA-NTRK1-F589L
T8 construct: fused on or other part: N-terminal part of LMNA as fusion partner (part of the key); P02545 (Prelamin-A/C)
Procedure: as §2, §3, §4, §5, §6, §7, §8, §9, §10, §11

Ba/F3 SLC34A2-ROS1-WT = target: T9, Ba/F3 SLC34A2-ROS1-WT (Homo sapiens, UniProt P08922); assay: as above; assay type: cell-based; settings: read-out: Half maximal inhibitory concentration IC50 of cells, Ba/F3 SLC34A2-ROS1-WT
T9 construct: fused on or other part: N-terminal part of SLC34A2 as fusion partner (part of the key); O95436 (Sodium-dependent phosphate transport protein 2B)
Procedure: as §2, §3, §4, §5, §6, §7, §8, §9, §10, §11

BaF3 ETV6-NTRK3-WT = target: T10, BaF3 ETV6-NTRK3-WT (Homo sapiens, UniProt Q16288); assay: as above; assay type: cell-based; settings: read-out: Half maximal inhibitory concentration IC50 of cells, BaF3 ETV6-NTRK3-WT
T10 construct: fused on or other part: N-terminal part of ETV6 (TEL) as fusion partner (part of the key); P41212 (Transcription factor ETV6)
T10 sequence (Q16288 whole entry, change not shown, the tested form may be a part): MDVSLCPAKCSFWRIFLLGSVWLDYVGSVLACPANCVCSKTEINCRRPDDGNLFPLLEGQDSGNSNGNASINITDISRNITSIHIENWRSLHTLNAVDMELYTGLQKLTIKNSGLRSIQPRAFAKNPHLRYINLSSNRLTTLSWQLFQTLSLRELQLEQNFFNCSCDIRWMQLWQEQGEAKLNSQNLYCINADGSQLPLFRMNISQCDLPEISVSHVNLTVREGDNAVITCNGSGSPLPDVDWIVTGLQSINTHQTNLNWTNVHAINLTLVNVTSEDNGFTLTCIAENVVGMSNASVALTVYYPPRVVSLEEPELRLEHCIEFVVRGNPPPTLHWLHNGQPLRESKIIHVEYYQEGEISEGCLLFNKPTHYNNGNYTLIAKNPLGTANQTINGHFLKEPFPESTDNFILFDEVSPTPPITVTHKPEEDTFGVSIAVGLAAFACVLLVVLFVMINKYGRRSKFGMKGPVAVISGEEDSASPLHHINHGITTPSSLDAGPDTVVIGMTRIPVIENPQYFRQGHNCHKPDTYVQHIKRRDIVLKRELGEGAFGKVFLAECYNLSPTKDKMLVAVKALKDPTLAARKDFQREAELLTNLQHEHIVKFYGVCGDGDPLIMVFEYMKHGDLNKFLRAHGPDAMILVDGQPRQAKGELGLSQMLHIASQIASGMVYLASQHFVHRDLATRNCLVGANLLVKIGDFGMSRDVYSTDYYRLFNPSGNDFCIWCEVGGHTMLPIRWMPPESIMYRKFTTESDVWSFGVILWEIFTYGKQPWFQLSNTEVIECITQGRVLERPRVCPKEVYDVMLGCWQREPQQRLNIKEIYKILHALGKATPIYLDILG
Procedure: as §2, §3, §4, §5, §6, §7, §8, §9, §10, §11

BaF3 LMNA-NTRK1-G595R = target: T11, BaF3 LMNA-NTRK1-G595R (Homo sapiens, UniProt P04629, G595R, cells depend on it); assay: as above; assay type: cell-based; settings: read-out: Half maximal inhibitory concentration IC50 of cells, BaF3 LMNA-NTRK1-G595R
T11 construct: fused on or other part: N-terminal part of LMNA as fusion partner (part of the key); P02545 (Prelamin-A/C)
Procedure: as §2, §3, §4, §5, §6, §7, §8, §9, §10, §11

Ba/F3 LMNA-NTRK1-WT = target: T12, Ba/F3 LMNA-NTRK1-WT (Homo sapiens, UniProt P04629); assay: as above; assay type: cell-based; settings: read-out: Half maximal inhibitory concentration IC50 of cells, Ba/F3 LMNA-NTRK1-WT
T12 construct: fused on or other part: N-terminal part of LMNA as fusion partner (part of the key); P02545 (Prelamin-A/C)
Procedure: as §2, §3, §4, §5, §6, §7, §8, §9, §10, §11

[1] = Pharmacokinetic test of compounds in rats (plasma, LC/MS/MS); assay type: in vivo, male SD rats; settings: for Cmax: read-out: Peak concentration Cmax
Procedure: Experimental purpose: male SD rats aged 7-9 weeks were selected as test animals, and the drug concentrations of the compounds in plasma at different time points after single intravenous injection (IV) and intragastric administration (PO) of the compounds were measured by an LC/MS/MS method, so that the pharmacokinetic behavior of the compounds disclosed herein in rats was studied, and the pharmacokinetic characteristic of the compounds was evaluated.
Drug preparation: the compounds were all prepared into clear solution by taking 5% DMSO+10% solutol+85% water as vehicle, and were used for administration in IV and PO groups. The dose of each compound administered was: IV, 3 mg/kg; PO, 10 mg/kg.

BaF3 ETV6-NTRK3-G623R = target: T13, BaF3 ETV6-NTRK3-G623R (Homo sapiens, UniProt Q16288, G623R, cells depend on it); assay: Inhibitory activity against cell proliferation (CellTiter-Glo, 72 hours); assay type: cell-based; settings: read-out: Half maximal inhibitory concentration IC50 of cells, BaF3 ETV6-NTRK3-G623R
T13 construct: fused on or other part: N-terminal part of ETV6 (TEL) as fusion partner (part of the key); P41212 (Transcription factor ETV6)
Procedure: as §2, with “kit. In this test, the cell lines used are Ba/F3 LMNA-NTRK1-WT, Ba/F3 LMNA-NTRK1-F589L, BaF3 LMNA-NTRK1-G595R, BaF3 LMNA-NTRK1-G667A, BaF3 ETV6-NTRK3-WT, BaF3 ETV6-NTRK3-G623R, and Ba/F3 SLC34A2-ROS1-WT stable cell strains, 5000 cells/well.” for “kit.”
as §3, §4
c) Cells in the 96-well plate were incubated overnight at 37° C. with 5% CO2 and 95% humidity.
as §5
b) The cells in the 96-well plate added with compound were incubated for 72 hours at 37° C. with 5% CO2 and 95% humidity, followed by the CTG (CellTiter-Glo) analysis.
as §6, §7, §8, §9, §10, §11

T1 sequence (Q9UM73 19-1620): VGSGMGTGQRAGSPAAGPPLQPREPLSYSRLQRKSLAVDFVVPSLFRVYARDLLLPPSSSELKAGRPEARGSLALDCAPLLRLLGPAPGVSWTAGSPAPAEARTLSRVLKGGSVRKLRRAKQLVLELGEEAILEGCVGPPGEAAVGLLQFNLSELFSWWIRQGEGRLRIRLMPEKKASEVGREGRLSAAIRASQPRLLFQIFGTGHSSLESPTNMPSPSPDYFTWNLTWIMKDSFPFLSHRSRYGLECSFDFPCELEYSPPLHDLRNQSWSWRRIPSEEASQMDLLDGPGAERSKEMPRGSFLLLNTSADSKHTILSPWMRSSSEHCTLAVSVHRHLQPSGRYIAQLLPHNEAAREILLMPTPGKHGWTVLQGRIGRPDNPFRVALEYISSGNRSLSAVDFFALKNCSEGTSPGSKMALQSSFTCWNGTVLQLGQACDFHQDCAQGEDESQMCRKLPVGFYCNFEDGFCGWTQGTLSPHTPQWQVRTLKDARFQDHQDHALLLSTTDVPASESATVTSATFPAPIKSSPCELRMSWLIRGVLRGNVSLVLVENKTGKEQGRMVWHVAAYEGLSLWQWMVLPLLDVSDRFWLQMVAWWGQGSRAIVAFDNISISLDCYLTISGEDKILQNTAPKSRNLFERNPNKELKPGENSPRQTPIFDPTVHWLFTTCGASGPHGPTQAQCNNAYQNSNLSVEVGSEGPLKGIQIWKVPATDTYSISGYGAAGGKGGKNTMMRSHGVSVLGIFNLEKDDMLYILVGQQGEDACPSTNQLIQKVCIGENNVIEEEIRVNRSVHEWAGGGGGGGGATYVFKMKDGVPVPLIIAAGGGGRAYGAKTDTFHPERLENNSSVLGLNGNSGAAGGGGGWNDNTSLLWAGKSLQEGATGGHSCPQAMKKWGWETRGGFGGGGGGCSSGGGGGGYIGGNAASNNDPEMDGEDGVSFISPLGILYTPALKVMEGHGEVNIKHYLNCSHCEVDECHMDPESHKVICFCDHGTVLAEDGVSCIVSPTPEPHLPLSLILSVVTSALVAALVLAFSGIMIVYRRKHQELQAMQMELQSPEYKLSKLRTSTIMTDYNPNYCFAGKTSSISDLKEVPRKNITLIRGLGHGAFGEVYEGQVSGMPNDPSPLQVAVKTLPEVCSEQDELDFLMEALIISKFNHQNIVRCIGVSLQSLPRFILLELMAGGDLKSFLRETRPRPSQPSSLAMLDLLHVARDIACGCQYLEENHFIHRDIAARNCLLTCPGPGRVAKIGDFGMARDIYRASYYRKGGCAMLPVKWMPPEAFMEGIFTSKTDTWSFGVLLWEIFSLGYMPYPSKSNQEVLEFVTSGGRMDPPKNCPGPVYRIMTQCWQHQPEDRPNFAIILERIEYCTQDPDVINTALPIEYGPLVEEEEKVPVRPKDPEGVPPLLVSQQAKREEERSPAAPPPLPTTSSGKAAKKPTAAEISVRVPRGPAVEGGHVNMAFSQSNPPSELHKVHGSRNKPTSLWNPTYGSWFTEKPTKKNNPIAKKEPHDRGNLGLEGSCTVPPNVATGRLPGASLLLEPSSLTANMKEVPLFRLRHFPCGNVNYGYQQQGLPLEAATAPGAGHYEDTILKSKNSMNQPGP

Row | SMILES | IC50 (ALK) [nM] | IC50 (TrkA-G595R) [nM] | IC50 (Ros1) [nM] | IC50 (TrkA-G667C) [nM] | IC50 (TrkA) [nM] | IC50 (TrkC) [nM] | GI50 (BaF3 LMNA-NTRK1-G667A) [nM] | GI50 (Ba/F3 LMNA-NTRK1-F589L) [nM] | GI50 (Ba/F3 SLC34A2-ROS1-WT) [nM] | GI50 (BaF3 ETV6-NTRK3-WT) [nM] | GI50 (BaF3 LMNA-NTRK1-G595R) [nM] | GI50 (Ba/F3 LMNA-NTRK1-WT) [nM] | Apparent clearance Cl ([1]; IV, 3 mg/kg) [mL/min/kg] | Apparent volume of distribution Vd ([1]; IV, 3 mg/kg) [L/kg] | Area under the curve AUC0-last ([1]; IV, 3 mg/kg) [µM·h] | Half-life T1/2 ([1]; IV, 3 mg/kg) [min] | Area under the curve AUC0-last ([1]; PO, 10 mg/kg) [µM·h] | Bioavailability F % ([1]; PO, 10 mg/kg) [%] | Time to peak Tmax ([1]; PO, 10 mg/kg) [min] | GI50 (BaF3 ETV6-NTRK3-G623R) [nM] | also measured
1 | C[C@@H]1COc2ncc(F)cc2[C@H]2COC[C@@H](C)N2c2ccn3ncc(c3n2)C(=O)N1 [WX006] | > 1000 | 0.3 | 4.8 | 0.1 | 0.7 | 0.1 | 2 | 189 | 900 | 3.2 | 8.4 | 1.5 | 32.9 | 1.3 | 3.818 | 36 | 6.637 | 53 | 30 | 14.2 | Cmax ([1]; PO, 10 mg/kg): 3750 nM
2 | O=C1NC2(CC2)COc2ncc(F)cc2[C@H]2CCOCCN2c2ccn3ncc1c3n2 [WX009A] | 51.3 | 0.9 | 0.1 | 2.9 | 1.8 | 0.1 | 7.3 | 15.8 | 50 | 2.2 | 7.4 | 1 | 19.0 | 1.3 | 6.19 | 54 | 9.696 | 49 | 78 | 12.9 | Cmax ([1]; PO, 10 mg/kg): 2630 nM
3 | C[C@@H]1COC[C@@H]2c3cc(F)cnc3OCC3(CC3)NC(=O)c3cnn4ccc(nc34)N12 [WX007] | 901 | 0.2 | 2.2 | 0.1 | 0.6 | 0.1 | 1.2 | 100 | 770 | 4.1 | 6.4 | 0.9 | – | – | – | – | – | – | – | 13.1 | –
4 | C[C@@H]1COC[C@@H]2c3cc(F)cnc3O[C@@H](C)CNC(=O)c3cnn4ccc(nc34)N12 [WX008] | > 1000 | 0.2 | 12.8 | 0.1 | 0.7 | 0.1 | 2 | 204 | > 1000 | 1.8 | 5 | 1.6 | 44.0 | 1.4 | 2.748 | 30 | 2.282 | 25 | 30 | 8.6 | Cmax ([1]; PO, 10 mg/kg): 1130 nM
